Patent US6075013A, “Modified low molecular weight heparin that inhibits clot associated coagulation factors” (Hamilton Civic Hospitals Research Development Inc., priority 1998, dated 2000)

B1: prothrombin fragment 2 (F2): prothrombin fragment 2, binds to exosite 2 of thrombin (protein, UniProt P00734 199-327, looked up)
Activation peptide fragment 2: SEGSSVNLSPPLEQCVPDRGQQYQGRLAVTTHGLPCLAWASAQAKALSKHQDFNSAVQLVENFCRNPDGDEEGVWCYVAGKPGDFGYCDLNYCEEAVEEETGDGLDEDSDRAIEGRTATSEYQTFFNPR
modifications: Activation peptide fragment 2

Columns and labels:
[1] = test system: washed plasma clot; experiment: procoagulant activity of washed plasma clot in unanticoagulated whole blood; format: biochemical; details: washed plasma clot incubated in unanticoagulated whole blood
From the text: There is mounting evidence that both fibrin-bound thrombin and platelet-bound factor Xa contribute to the intense procoagulant activity of thrombi. […] Development of these agents requires an understanding of the mechanisms by which fibrin-bound IIa and platelet-bound factor Xa are protected from inactivation by heparin, LMWH and hirudin.

[2] = test system: injured rabbit aorta; experiment: rabbit arterial thrombosis prevention model; format: in vivo; details: over the doses tested
Description: The arterial thrombosis prevention model was modified so that both efficacy and safety could be assessed in the same animal. […] The four compounds were compared at three dosage levels. Each compound was administered as a bolus and infusion for 90 minutes. The doses listed in the following figures represent the bolus and infusion/60 minutes, administered for 90 minutes. The doses for heparin are shown as units/Kg, for LMWH and V21 as mg/Kg and for hirudin as mg/Kg. […] Thus, the specific activity of LMWH is 100 anti-Xa/mg and 30 anti-IIa units/mg. […] The anticoagulants were compared in the following dosages. Heparin 50 units/Kg and 75 unit/Kg; LMWH and V21 0.5, 1.0 and 1.5 mg/Kg; Hirudin 0.1/0.1, 0.1/0.2 and 0.1/0.3 mg/Kg.
FIG. 11 compares the efficacy of the four anticoagulants using cumulative time that the aorta remained patent over the 90 minutes of observation as the outcome measure of efficacy. One hundred percent accumulated patency reflects complete patency and 0% cumulative patency reflects immediate and sustained thrombotic occlusion.

[3] = molecular target: thrombin (IIa) binding to fibrin (Homo sapiens, UniProt P00734); experiment: effect on thrombin (IIa) binding to fibrin / fibrin monomer-sepharose; details: presence of 250 nM heparin
Description: FIGS. 1A and 1B illustrate the effects of varying heparin concentrations on thrombin (IIa) binding to fibrin (A) and on thrombin's apparent affinity for fibrin (B).
FIG. 3 illustrates the effect of hirugen (Hg), prothrombin fragment 2 (F2) or antibody against exosite 2 (Wab) on thrombin (IIa) binding to fibrin monomersepharose in the absence or presence of 250 nM heparin.
FIG. 9 illustrates the effect of unfractionated heparin (UFH) and a 6,000 Da heparin fraction (MLMWH) on thrombin (IIa) binding to fibrin.
When heparin is present, the amount of thrombin that binds to fibrin changes, as does the mode of thrombin interaction with fibrin.
The mode of thrombin binding also changes in the presence of heparin. Whereas thrombin binds to fibrin via exosite 1 in the absence of heparin, enhanced α-thrombin binding seen in the presence of heparin is mediated by exosite 2 because heparin augments the binding of γ-thrombin to the same extent as α-thrombin but has little effect on the binding of RA-thrombin (FIG. 2). Furthermore, excess α-thrombin bound in the presence of heparin is displaced with an antibody to exosite 2 or with prothrombin fragment 2 (F2) which, like heparin, also binds to exosite 2 (Arni, R. K., et al. (1993) Biochemistry 32:4727-4737). […]

Molecule	block of the clot's ability to accelerate coagulation [1]	response of the model to the antithrombotic effects [2]	effect on heparin-dependent binding of thrombin to fibrin [3]
TAP: tick anticoagulant peptide, a direct inhibitor of factor Xa (YNRLCIKPRDWIDECDSNEGGERAYFRNGKGGCDSFWICPEDHTGADYYSSYRDCFNACI; UniProt P17726 1-60, looked up)	cannot be blocked	–	–
hirudin	cannot be blocked	very responsive	–
B1	–	–	displaced
